For experiment [1], the system named is rice blast fungus (Magnaporthe grisea). Nature of the experiment: microbe, parasite or virus in culture. The format is cell-based. Conditions: Pyricularia oryzae, read-out: antimicrobial activity, inhibition of Magnaporthe grisea.
Experiment [2] concerns Botrytis cinerea AARF-033. Description: Antimicrobial activity test against rice Botrytis cinerea (conidia, 96 well microplate). The format is cell-based. Conditions: AARF033, 96 h, conidia 1×10^4 conidia/ml in potato-glucose broth, 25° C. for 4 days. The text has this: Test specimen (compound (A2-1) and compound (A5-1)) and reference agents i.e. iprodione and captan, were, respectively, dissolved in dimethyl sulfoxide (DMSO) and adjusted to 10,000 ppm. To a flat bottom 96 well microplate, 2 μ/ml of each test solution was dispensed, and then, 198 μ/ml of conidia of rice Botrytis cinerea (Botrytis cinerea AARF-033) cultured on a potato-glucose agar medium, and suspended in a potato-glucose broth and adjusted to 1×10^4 conidia/ml, were dispensed, followed by stirring by a micro mixer. At that time, the concentration of each test specimen and reference agent, was 100 ppm. Thereafter, culturing under standing-still condition was conducted at 25° C. for 4 days, whereby the antimicrobial activities were evaluated.

As a reminder, the inhibition is the drop in the measured response relative to a control, in per cent.

With `CCCCNC(=O)n1c(NC(=O)OC)nc2ccccc21` [Benomyl, benomyl], in experiment [1], the inhibition at 100 ppm is no less than 95%.

With `CO/N=C(/C1=NOCCO1)c1ccccc1Oc1ncnc(Oc2ccccc2Cl)c1F` [Fluoxastrobin, fluoxastrobin], the inhibition at 100 ppm in experiment [1] is no less than 95%.

Regarding `Nc1cnc(-c2ccccc2)nc1C(F)(F)OC(F)(F)C(F)(F)OC(F)(F)C(F)(F)F` [Compound A5-1], the inhibition at 100 ppm in experiment [2] and in experiment [1] was no less than 95% in each case.

In experiment [2], `CC(C)NC(=O)N1CC(=O)N(c2cc(Cl)cc(Cl)c2)C1=O` [Iprodione, iprodione] had an inhibition at 100 ppm of no less than 95%.

Compound `O=C1C2CC=CCC2C(=O)N1SC(Cl)(Cl)Cl` (centres unmarked) [Captan, captan] came in with an inhibition at 100 ppm in experiment [2] of no less than 95%.

As to `CCOC(=O)c1cnc(-c2ccccc2)nc1C(F)(OC(F)(F)C(F)(F)C(F)(F)F)C(F)(F)F` (centres unmarked) [Compound A2-1], the inhibition at 100 ppm in experiment [2] and in experiment [1] was no less than 95% each time.

(Values after patent US20170050934A1 (priority 2014, published 2017).)
